# Experimental data taken from US20110218107A1 (priority 2010, published 2011).
# Like-named read-outs stand apart in the source and are kept apart here.
# Legend:
# [1] = system: vines; conditions: cited from earlier work
# [2] = system: tomato plants of the cultivar "Harzfeuer"; test: Greenhouse test tomato under zinc deficiency: plant weight and plant height; assay type: in vivo; conditions: 0% Zn supply
# Protocol: (§1) Greenhouse experiments (Examples A and B) were carried out to evaluate the effect of fungicide applications on the growth and development of plants cultivated under Zn deficiency, in particular the effect of Propineb and Mancozeb on the growth and development of banana and tomato plants. Banana plants and tomato plants of the cultivar “Harzfeuer” were cultivated on rock wool at different zinc regimes, 100% and 0% zinc level, with and without Propineb or Mancozeb applications.
# (§2) Tomato on rock wool has been sowed and approximately after 3 weeks, the plants have been transferred to rock wool bags. After the specified intervals the plants have been treated either 2 times preventive or one time curative and have been fertilized with a modified Hoagland solution which contained 100% or 0% zinc and having the composition as given below. Propineb and Mancozeb were applied. The fertilization was carried out in combination with the irrigation, using a drip application system.
# Propineb has been applied through spray application of commercially available Antracol 70WG solution (conc. 0.15% Propineb). Mancozeb has been applied as commercially available Dithane NeoTec® 75WG (conc. 0.15% Mancozeb). Preventive treatments with Propineb or Mancozeb were carried out 27 days and 57 days (Treatment No. 3 and Treatment No. 5) after sowing. Curative applications of Propineb or Mancozeb were carried out 95 days (Treatment No. 4 and Treatment No. 6) after sowing according to the following regime:
# The effect of preventive and curative treatments of Propineb and Mancozeb on the growth and development of tomato plants was evaluated by measuring the plant weight and plant height. The assessment of Treatment No. 3 and Treatment No. 5 was carried out 95 days after sowing. The morphological assessment of Treatment No. 4 and Treatment No. 6 was carried out 132 days after sowing.
# [3] = system: banana plants; test: Greenhouse test banana under zinc deficiency: chlorophyll a fluorescence (Handy PEA); assay type: in vivo; conditions: 0% Zn supply, curative treatment
# Protocol: as §1
# as §2, with “Banana on” for “Tomato on”, “treated” for “treated either”, “curative with Propineb and/or” for “curative and”, “below.” for “below. Propineb and Mancozeb were applied.”
# (§3) Propineb has been applied through spray application of commercially available Antracol 70WG solution (conc. 0.15% Propineb). Preventive treatments with Propineb were carried out 34 days and 57 days (Treatment No. 3) after sowing. Curative application of Propineb was carried out 85 days (Treatment No. 4) after sowing according to the following regime:
# (§4) The effect of preventive and curative Propineb treatments on the growth and development of banana plants was evaluated by measuring the leaf size, leaf weight and the chlorophyll a fluorescence using a Handy PEA system. The assessment of Treatment No. 3 was carried out 101 days after sowing. The morphological assessment of Treatment No. 4 was carried out 121 days after sowing. The chlorophyll a fluorescence was measured 13 and 28 days after the curative application of Propineb.
# Fv/Fm: Fv/Fm is a parameter widely used to indicate the maximum quantum efficiency of photosystem II(PSII) This parameter is widely considered to be a selective indication of plant photosynthetic performance with healthy samples typically achieving a maximum Fv/Fm value of approx. 0.85. Values lower than this will be observed if a sample has been exposed to some type of biotic or abiotic stress factor which has reduced the capacity for photo-chemical quenching of energy within PSII. Fv/Fm is presented as a ratio of variable fluorescence (Fv) over the maximum fluorescence value (Fm). The Performance Index is essentially an indicator of sample vitality. (See e.g. Advanced Techniques in Soil Microbiology, 2007, 11, 319-341; Applied Soil Ecology, 2000, 15, 169-182.)
# [4] = system: banana plants; test: Greenhouse test banana under zinc deficiency: leaf size and leaf weight; assay type: in vivo; conditions: 0% Zn supply
# Protocol: as §1
# as §2, with “Banana on” for “Tomato on”, “treated” for “treated either”, “curative with Propineb and/or” for “curative and”, “below.” for “below. Propineb and Mancozeb were applied.”
# as §3, §4
# [5] = curative spray 95 days after sowing (conc. 0.15%), assessed 132 days after sowing
# [6] = preventive spray 27 and 57 days after sowing (conc. 0.15%), assessed 95 days after sowing
# [7] = 1st measurement (13 days after curative application)
# [8] = 2nd measurement (28 days after curative application)
# [9] = curative spray 85 days after sowing (0.15% Propineb), assessed 121 days after sowing
# [10] = preventive spray 34 and 57 days after sowing (0.15% Propineb), assessed 101 days after sowing
compound,measurement,setting,value
S=C(S)NCCNC(=S)S [Zineb],yield and growth compared to untreated vines,"[1]; vines, ISHS Acta Horticulturae 1987, 199, 157-161",significantly greater yield and growth
O=S(=O)([O-])[O-].[Zn+2] [zinc sulfate],yield and growth compared to untreated vines,[1]; in vivo,significantly greater yield and growth
Mancozeb,Plant weight,[2]; [5],409 g
same,Plant height,[2]; [6],64
same,Plant weight,[2]; [6],249 g
Propineb,Fv/Fm,[3]; [7],0.82
same,Performance index,[3]; [7],2.21
same,Fv/Fm,[3]; [8],0.83
same,Performance index,[3]; [8],2.69
same,Plant weight,[2]; [5],568 g
same,Plant height,[2]; [6],76
same,Plant weight,[2]; [6],341 g
same,Leaf size,[4]; [9],2101 ± 612 cm^2
same,Leaf weight,[4]; [9],90 g
same,Average leaf size,[4]; [10],2062 ± 284 cm^2
same,Average leaf weight,[4]; [10],76 g
